Assay [1] has as its system HT-29. The assay can be described thus: Cytotoxicity against human HT-29 cells after 48 hrs by SRB assay. The assay is classed as functional. Conditions: HT-29, 48 h.
The test system of assay [2] is PC-3. The assay is described as follows: Cytotoxicity against human PC3 cells assessed as cellular growth at 1 uM after 48 hrs by SRB assay relative to control. The class given is functional. (In general: Sulforhodamine B stains cellular protein and so reports cell mass.)
Assay [3] has as its system HT-29. The assay is described as follows: Cytotoxicity against human HT-29 cells assessed as cellular growth at 100 uM after 48 hrs by SRB assay relative to control. The assay is classed as functional.
Assay [4] has as its system PC-3. The assay can be described thus: Cytotoxicity against human PC3 cells assessed as cellular growth at 100 uM after 48 hrs by SRB assay relative to control. The assay is classed as functional.
In assay [5] the test system is PC-3. The assay is described as follows: Cytotoxicity against human PC3 cells assessed as cellular growth at 0.01 uM after 48 hrs by SRB assay relative to control. The assay is classed as functional.
For assay [6], the system named is HT-29. The assay is described as follows: Cytotoxicity against human HT-29 cells assessed as cellular growth at 0.1 uM after 48 hrs by SRB assay relative to control. The assay is classed as functional.
In assay [7] the test system is HT-29. The assay can be described thus: Cytotoxicity against human HT-29 cells assessed as cellular growth at 0.01 uM after 48 hrs by SRB assay relative to control. The assay is classed as functional.
The nature of assay [8]: Cytotoxicity against human renal cancer cells assessed as cellular growth at 10 uM after 48 hrs by SRB assay relative to control. The class given is functional, Cancer cell lines.
Assay [9] in a line: Cytotoxicity against human CNS cancer cells assessed as cellular growth at 10 uM after 48 hrs by SRB assay relative to control. The assay is classed as functional, Cancer cell lines.
Assay [10] in a line: Cytotoxicity against human melanoma cells assessed as cellular growth at 10 uM after 48 hrs by SRB assay relative to control. The assay is classed as functional, Melanoma cell.
Assay [11] can be described thus: Cytotoxicity against human leukemia cells assessed as cellular growth at 10 uM after 48 hrs by SRB assay relative to control. The assay is classed as functional, Leukemia cell.
The nature of assay [12]: Cytotoxicity against human breast cancer cells assessed as cellular growth at 10 uM after 48 hrs by SRB assay relative to control. The class given is functional, Cancer cell lines.
Assay [13] in a line: Cytotoxicity against human colon cancer cells assessed as cellular growth at 10 uM after 48 hrs by SRB assay relative to control. The assay is classed as functional, Cancer cell lines.
Assay [14] in a line: Cytotoxicity against human prostate cancer cells assessed as cellular growth at 10 uM after 48 hrs by SRB assay relative to control. The assay is classed as functional, Cancer cell lines.
Assay [15] concerns HCC 2998. The assay is described as follows: Cytotoxicity against human HCC2998 cells assessed as cellular growth at 0.01 uM after 48 hrs by SRB assay relative to control. The assay is classed as functional.
Assay [16] has as its system HCC 2998. The assay is described as follows: Cytotoxicity against human HCC2998 cells assessed as cellular growth at 100 uM after 48 hrs by SRB assay relative to control. The class given is functional.
Assay [17] has as its system RPMI-8226. The assay is described as follows: Cytotoxicity against human RPMI8226 cells assessed as cellular growth at 0.01 uM after 48 hrs by SRB assay relative to control. The class given is functional.
The test system of assay [18] is HCC 2998. The assay is described as follows: Cytotoxicity against human HCC2998 cells after 48 hrs by SRB assay. Conditions: HCC 2998, 48 h. The class given is functional.
Assay [19] deals with CAKI-1. The assay is described as follows: Cytotoxicity against human Caki1 cells assessed as cellular growth at 100 uM after 48 hrs by SRB assay relative to control. The assay is classed as functional.
The next assay deals with SW-620. The assay is described as follows: Cytotoxicity against human SW620 cells assessed as cellular growth at 1 uM after 48 hrs by SRB assay relative to control. The assay is classed as functional.
Assay [20] has as its system RPMI-8226. The assay can be described thus: Cytotoxicity against human RPMI8226 cells assessed as cellular growth at 1 uM after 48 hrs by SRB assay relative to control. The class given is functional.
Assay [21] relates to CAKI-1. The assay can be described thus: Cytotoxicity against human Caki1 cells assessed as cellular growth at 1 uM after 48 hrs by SRB assay relative to control. The class given is functional.
In assay [22] the test system is CAKI-1. The assay can be described thus: Cytotoxicity against human Caki1 cells assessed as cellular growth at 0.01 uM after 48 hrs by SRB assay relative to control. The assay is classed as functional.
The test system of assay [23] is MOLT-4. The assay can be described thus: Cytotoxicity against human MOLT4 cells assessed as cellular growth at 0.01 uM after 48 hrs by SRB assay relative to control. The class given is functional.
The subject of assay [24] is MOLT-4. The assay is described as follows: Cytotoxicity against human MOLT4 cells assessed as cellular growth at 100 uM after 48 hrs by SRB assay relative to control. The class given is functional.
The subject of assay [25] is CAKI-1. The assay is described as follows: Cytotoxicity against human Caki1 cells after 48 hrs by SRB assay. The assay is classed as functional. Conditions: CAKI-1, 48 h.
The test system of assay [26] is RPMI-8226. The assay can be described thus: Cytotoxicity against human RPMI8226 cells after 48 hrs by SRB assay. To be noted: RPMI-8226, 48 h. The assay is classed as functional.
For assay [27], the system named is MOLT-4. The assay can be described thus: Cytotoxicity against human MOLT4 cells assessed as cellular growth at 0.1 uM after 48 hrs by SRB assay relative to control. The assay is classed as functional.
Assay [28] concerns RPMI-8226. The assay can be described thus: Cytotoxicity against human RPMI8226 cells assessed as cellular growth at 0.1 uM after 48 hrs by SRB assay relative to control. The class given is functional.
For assay [29], the system named is CAKI-1. The assay is described as follows: Cytotoxicity against human Caki1 cells assessed as cellular growth at 0.1 uM after 48 hrs by SRB assay relative to control. The assay is classed as functional.
Assay [30] concerns HCC 2998. The assay is described as follows: Cytotoxicity against human HCC2998 cells assessed as cellular growth at 1 uM after 48 hrs by SRB assay relative to control. The class given is functional.
[31] abbreviates: read-out: LC50 (the source's name).
Where [32] appears, read: read-out: pLC50 (the source's name) (converted).

A value given as a limit tells only on which side of the number the result lay.

With `O=C(CCCn1c2c(sc3ccccc32)c(=O)n2nnc(-c3ccccc3)c12)NCCc1c[nH]cn1`, the GI50 is 0.674 µM with HT-29 [1] (read-out: GI50) and 0.676 µM with HT-29 [1] (read-out: pGI50 (converted)). Also, the CC50 with HT-29 [1] (setting [31]) is 4.55 µM; in the assay on HT-29 [1] (setting [32]) it was 4.57 µM. Moreover, the TGI in the assay with HT-29 [1] (read-out: TGI) was 2.01 µM; in the assay with HT-29 [1] (read-out: pTGI (converted)), 2 µM. Moreover, the Activity in the assay with PC-3 [2] is recorded as 33%; in the assay with HT-29 [3], -100%; in the assay on PC-3 [4], -51%; with PC-3 [5] it was 86%; in the assay on HT-29 [6], 84%; in the assay with HT-29 [7] it was 113%.

With `O=C(O)CCCn1c2c(sc3ccccc32)c(=O)n2nnc(-c3ccccc3)c12`, the Activity in assay [8] is given as 75%; in [9], 88%; in [10], 95%; in assay [11] it was 102%; in assay [12], 79%; in assay [13], 90%. The Activity in assay [14] came out at 92%.

With `CN1CCN(CCCn2c3c(sc4ncccc43)c(=O)n3nnc(-c4ccccc4)c23)CC1`, the Activity in the assay with HCC 2998 [15] is listed as 104%; with HCC 2998 [16] it was -76%; in the assay on RPMI-8226 [17], 110%; in the assay with CAKI-1 [19] it was -90%; in the assay with SW-620, 83%; in the assay on RPMI-8226 [20], 84%. The Activity in the assay on CAKI-1 [21] is given as 85%; in the assay on CAKI-1 [22], 97%; with MOLT-4 [23], 99%; with MOLT-4 [24], -56%; in the assay with MOLT-4 [27] it was 102%; in the assay with RPMI-8226 [28] it was 100%. Moreover, the Activity with CAKI-1 [29] is reported as 86%; in the assay with HCC 2998 [30], 102%. Further, the GI50 is 1.88 µM with HCC 2998 [18] (read-out: GI50); 1.86 µM in the assay with HCC 2998 [18] (read-out: pGI50 (converted)); 1.63 µM with CAKI-1 [25] (read-out: GI50); 1.62 µM in the assay with CAKI-1 [25] (read-out: pGI50 (converted)); 1.81 µM in the assay with RPMI-8226 [26] (read-out: GI50); 1.82 µM in the assay on RPMI-8226 [26] (read-out: pGI50 (converted)). Also, the CC50 is 6.39 µM in the assay on HCC 2998 [18] (setting [31]); 6.46 µM in the assay on HCC 2998 [18] (setting [32]); 6.65 µM in the assay on CAKI-1 [25] (setting [31]); 6.61 µM in the assay with CAKI-1 [25] (setting [32]); over 100 µM with RPMI-8226 [26] (setting [31]); over 100 µM in the assay with RPMI-8226 [26] (read-out: pLC50 (converted)). In addition, the TGI in the assay on HCC 2998 [18] (read-out: TGI) is 3.47 µM; with HCC 2998 [18] (read-out: pTGI (converted)), 3.47 µM; in the assay with CAKI-1 [25] (read-out: TGI), 3.29 µM; in the assay with CAKI-1 [25] (read-out: pTGI (converted)) it was 3.31 µM; with RPMI-8226 [26] (read-out: TGI) it was 4.33 µM; with RPMI-8226 [26] (read-out: pTGI (converted)), 4.37 µM.

Source of the values: ChEMBL document CHEMBL2401728, “An unexpected Dimroth rearrangement leading to annelated thieno[3,2-d][1,2,3]triazolo[1,5-a]pyrimidines with potent antitumor activity” (Eur J Med Chem, 2013).
